# Assay results reported in patent US20260248833A1, “PYRIMIDINE NUCLEOSIDE TREATMENTS” (The Children`s Medical Center Corporation, priority 2022, published 2026).
# “Also recorded” adds a separate entry of the source.
# Columns and labels:
# [1] = system: super-telomerase cells (TERC-null 293T cells transfected with TERT and TERC); assay: TRF Southern blot telomere synthesis in super-telomerase cells; type: cell-based, human; settings: treatment for 30 hours
# Description: (§1) Terminal Restriction Fragment Length Analysis: genomic DNA was isolated from cells using the Invitrogen Purelink Genomic DNA mini kit (Invitrogen). 1-3 μg of gDNA was digested with RsaI and HinfI for 2-3 hrs at 37° C. and loaded onto a 0.6% agarose gel followed by Southern blotting using the Telotaggg Telomere Length Assay Kit (Roche). Quantification was performed using the WALTER webtool.
# dT supplementation increases levels of dTTP and can reduce dCTP levels, leading to replication stress at high doses. Because replication stress signaling has been implicated in telomerase biology we asked whether replication stress induction explained the telomere length increases seen with dT treatment. We first tested whether telomere elongation is a universal response to replication stress-inducing compounds. […] However, cytotoxicity limited our ability to apply higher doses of replication stress-inducing compounds for time periods long enough to study telomere length changes. […] Using this system, we next asked how high-dose treatment with replication stress-inducing agents such as aphidicolin, hydroxyurea, and the TYMS inhibitor 5FU influence telomere synthesis compared to dT.
# [2] = system: T-free super-telomerase expressing cells (293T TERC-null); assay: Slot blot of GGAAAG repeat content in cellular DNA; type: cell-based, human; settings: 5FU (10 μM) or HU (500 μM)
# Description: Slot blotting: slot blotting was performed as described with minor modifications. Briefly, DNA concentration was normalized to 20 ng/μl using a nanodrop spectrophotometer. 3.3 μl of DNA was added to 16.5 μl of denaturation solution (0.5 M NaOH, 1.5 M NaCl) and heated to 55° C. for 30 minutes. 495 μl of neutralization solution (0.5 M Tris-HCl, 1.5 M NaCl) was added to denatured DNA and 156 μl of this solution was added in triplicate to different slots on a Bio-Dot SF Apparatus (Bio-Rad) and blotted onto Hybond N+ Membrane (Cytivia). Membrane preparation and washing was performed as described. For samples with paired GGTTAG and GGAAAG slot blots, the above recipe was doubled, and 156 μl was loaded onto parallel membranes in triplicate on each membrane. After blotting, membranes were hybridized and detected as described above for TRF Southern blots using the probe indicated in the figure. Blots were analyzed using ImageJ. Statistical analysis was performed using Graphpad prism V9.1.0.
# [3] = system: pCHK1-S345 and pRPA32-S33; assay: Immunoblot of replication stress signaling in super-telomerase cells; type: cell-based, human; settings: highest doses, 30 hours
# K562 cells = assay: Terminal restriction fragment (TRF) Southern blot telomere length, K562 cells; type: cell-based, human; settings: K562 cells
# Description: (§2) Cell culture: K562 cells (ATCC) were grown in RPMI1 1640 (Gibco) media supplemented with 10% fetal bovine serum. 293T cells (ATCC) were grown in DMEM (Gibco) supplemented with 10% fetal bovine serum, and were subcultured using 0.05% trypsin (Gibco). iPSCs were derived, characterized and cultured as previously described. iPSCs were grown in Essential 8 Media (Life Technologies) supplemented with the ROCK inhibitor Y271632 (Stem Cell Technologies) at 10 μM on plates coated with hES qualitied Matrigel matrix (Corning) and were subcultured using Accutase (Stem Cell Technologies).
# as §1
# 293T cells = assay: Terminal restriction fragment (TRF) Southern blot telomere length, 293T cells; type: cell-based, human
# Description: as §2, §1
# [4] = co-administration with dT; cited from earlier work
# telomere length = assay: Telomere length with cytidine and uridine (FIG. 23); type: cell-based
# [5] = at pH of about 7; cited from earlier work
# [6] = 8 days, doses up to those maximally tolerated
# [7] = 10 days, doses up to those maximally tolerated
# [8] = 100 μM of the indicated deoxynucleoside(s) for 8 days
# [9] = 100 μM of the indicated deoxynucleoside(s) for 9 days
# [10] = baseline 16 μM dT, plus 100 μM additional dT or 1 mM dU, 10 days
structure (smiles),measurement,setting,value
"O=c1[nH]cc(F)c(=O)[nH]1 [5FU, 5-fluorouracil, reference compound]",telomere repeat synthesis / telomere elongation by telomerase,[1],ablated telomere elongation by telomerase; also recorded: completely inhibited telomere elongation; also recorded: ablated telomere lengthening in super-telomerase cells
same,levels of GGAAAG repeats,[2],reduced levels of GGAAAG repeats; also recorded: inhibited T-free telomerase activity
same,replication stress signaling,[3],induced similar levels of replication stress signaling
"O=C1NC(=NCc2cccs2)S/C1=C\c1ccc2ncccc2c1 [RO-3306, reference compound]",telomere length,K562 cells; [6],No changes were found in telomere length
same,telomere length,293T cells; [7],No changes were found in telomere length
"C[C@@]1(CO)[C@H](O)CC[C@@]2(C)[C@H]1CC[C@H]1C[C@@H]3C[C@@]12CC[C@]3(O)CO [aphidicolin, reference compound]",telomere repeat synthesis / telomere elongation by telomerase,[1],"drove detectable increases in telomere length, albeit to a lesser extent than dT"
same,replication stress signaling,[3],induced similar levels of replication stress signaling
same,telomere length,293T cells; [7],telomere elongation after 10 days
"Nc1ccn([C@@H]2O[C@H](CO)[C@@H](O)[C@H]2O)c(=O)n1 [cytidine, 4-amino-1-[(2R,3R,4S,5R)-3,4-dihydroxy-5-(hydroxymethyl)oxolan-2-yl]pyrimidin-2 (1H)-one]",toxicity caused by dT,[4],reduce toxicity caused by dT
same,telomere length,telomere length,increase telomere length
"Nc1ncnc2c1ncn2[C@H]1C[C@H](O)[C@@H](CO)O1 [dA, deoxyadenosine, reference compound]",telomere length,K562 cells; [8],"but not deoxyadenosine (dA) or deoxyguanosine (dG), rapidly and robustly increases telomere length"
same,telomere length,293T cells; [9],"but not deoxyadenosine (dA) or deoxyguanosine (dG), rapidly and robustly increases telomere length"
"Nc1ccn([C@H]2C[C@H](O)[C@@H](CO)O2)c(=O)n1 [dC, 4-azmino-1-[(2R,4S,5R)-4-hydroxy-5-(hydroxymethyl)oxolan-2-yl]pyrimidin-2 (1H)-one]",toxicity caused by dT,[4],reduce toxicity caused by dT; also recorded: reduces toxicity of dT and improves cell growth compared to dT alone
same,water solubility,[5],about 870 mg/mL
"Nc1nc2c(ncn2[C@H]2C[C@H](O)[C@@H](CO)O2)c(=O)[nH]1 [dG, deoxyguanosine, reference compound]",telomere length,K562 cells; [8],"but not deoxyadenosine (dA) or deoxyguanosine (dG), rapidly and robustly increases telomere length"
same,telomere length,293T cells; [9],"but not deoxyadenosine (dA) or deoxyguanosine (dG), rapidly and robustly increases telomere length"
"O=c1ccn([C@H]2C[C@H](O)[C@@H](CO)O2)c(=O)[nH]1 [dU, 1-((2R,4S,5R)-4-Hydroxy-5-(hydroxymethyl)tetrahydrofuran-2-yl)pyrimidine-2,4 (1H,3H)-dione]",water solubility,[5],about 5 mg/ml
same,telomere length with baseline of 16 μM dT,"K562 cells; added dU, 10 days",increased telomere length
same,telomere lengthening in TYMS-knockout cells,K562 cells; [10],no longer able to promote telomere lengthening
same,concentration giving telomere elongation to a degree similar to dT,293T cells; 10× the dT concentration,1 mM
same,telomere length with baseline of 16 μM dT,"293T cells; added dU, 10 days",increased telomere length
same,telomere lengthening in TYMS-knockout cells,293T cells; [10],no longer able to promote telomere lengthening
same,telomere length,"293T cells; dU 1 mM, 10 days (FIG. 9)",elongate telomeres to a degree similar to dT
same,telomere length,"293T cells; dU 1 mM, 10 days (FIG. 9), listed as Deoxyuridine",promotes telomere elongation
"Nc1nc2ncc(CNc3ccc(C(=O)N[C@@H](CCC(=O)O)C(=O)O)cc3)nc2c(=O)[nH]1 [folate, folic acid, reference compound]",telomere length,"293T cells; folate supplementation up to 1 mM, 10 days",did not yield telomere elongation
same,telomere length,"293T cells; folate supplementation up to 1 mM, 10 days, listed as folic acid",but not folic acid supplementation promotes telomere elongation
"NC(=O)NO [hydroxyurea, reference compound]",telomere repeat synthesis / telomere elongation by telomerase,[1],ablated telomere elongation by telomerase
same,levels of GGAAAG repeats,[2],reduced levels of GGAAAG repeats
same,replication stress signaling,[3],induced similar levels of replication stress signaling
same,telomere length,K562 cells; [6],No changes were found in telomere length
same,telomere length,293T cells; [7],No changes were found in telomere length; also recorded: did not change telomere length after 10 days
"O=c1ccn([C@@H]2O[C@H](CO)[C@@H](O)[C@H]2O)c(=O)[nH]1 [uridine, 1-[(2R,3R,4S,5R)-3,4-Dihydroxy-5-(hydroxymethyl)oxolan-2-yl]pyrimidine-2,4 (1H,3H)-dione]",telomere length,telomere length,increase telomere length
